Laboratory results reported in ChEMBL document CHEMBL5653627 (J Neurochem, 2017).
Calls of active or inactive are those of the source. The calls are words filed in the database; no cut-off is given here.

Assays:
SMA-560 [1] = assay: Antitumor activity against mouse SMA-560 cells xenografted in VM/Dk mouse assessed as decrease in tumor volume at 100 mg/kg,po daily with 12 Gy irradition after 2days of treatment initiation by H and E staining based microscopy; type: functional, organism-based
SMA-497 [2] = assay: Antitumor activity against mouse SMA-497 cells xenografted in VM/Dk mouse assessed as decrease in tumor cell proliferation at 100 mg/kg,po daily with 12 Gy irradition after 2days of treatment initiation by Ki67 staining based immunohistochemistry analysis; type: functional, organism-based
SMA-540 [3] = assay: Antitumor activity against mouse SMA-540 cells xenografted in VM/Dk mouse assessed as decrease in tumor volume at 100 mg/kg,po daily by H and E staining based microscopy; type: functional, organism-based
SMA-560 [4] = assay: Antitumor activity against mouse SMA-560 cells xenografted in VM/Dk mouse assessed as decrease in number of CD31-positive intra-tumoral vessels in tumor at 100 mg/kg,po daily with 12 Gy irradition after 2days of treatment initiation by immunohistochemistry analysis; type: functional, organism-based
SMA-560 [5] = assay: Antitumor activity against mouse SMA-560 cells xenografted in VM/Dk mouse assessed as increase in number of tumor-infiltrating CD11b positive monocytes/microglia in tumor at 100 mg/kg,po daily by immunohistochemistry analysis; type: functional, organism-based
GL261 = assay: Cytotoxicity against mouse GL261 cells assessed as reduction in metabolic activity at 0.001 to 100 uM incubated for 72 hrs by MTT assay; type: functional, cell-based; conditions: dose 0.001-100 µM
SMA-560 [6] = assay: Induction of apoptosis in mouse SMA-560 cells assessed as late apoptotic cells at 0.1 uM incubated for 72 hrs by Annexin V-FITC/PI staining based flow cytometric analysis (reference value: 1.83%); type: functional
SMA-540 [7] = assay: Antitumor activity against mouse SMA-540 cells xenografted in VM/Dk mouse assessed as decrease in number of CD31-positive intra-tumoral vessels in tumor at 100 mg/kg,po daily by immunohistochemistry analysis; type: functional, organism-based
SMA-497 [8] = assay: Induction of cell cycle arrest in mouse SMA-497 cells assessed as accumulation at sub G1 phase at 0.1 uM incubated for 72 hrs by propidium iodide/RNase staining based flow cytomtery (Rvb= 2%); type: functional
SMA-560 [9] = assay: Induction of cell cycle arrest in mouse SMA-560 cells assessed as accumulation at S phase at 0.1 uM incubated for 72 hrs by propidium iodide/RNase staining based flow cytomtery (Rvb= 2%); type: functional
SMA-497 [10] = assay: Induction of apoptosis in mouse SMA-497 cells assessed as necrotic cells at 0.1 uM incubated for 72 hrs by Annexin V-FITC/PI staining based flow cytometric analysis (reference value: 14.7%); type: functional
SMA-497 [11] = assay: Antitumor activity against mouse SMA-497 cells xenografted in VM/Dk mouse assessed as tumor cell proliferation at 100 mg/kg,po daily by Ki67 staining based immunohistochemistry analysis; type: functional, organism-based
SMA-560 [12] = assay: Induction of apoptosis in mouse SMA-560 cells assessed as necrotic cells at 0.1 uM incubated for 72 hrs by Annexin V-FITC/PI staining based flow cytometric analysis (reference value: 13.5%); type: functional
SMA-560 [13] = assay: Anti-clonogenicic activity in mouse SMA-560 cells assessed as reduction in colony formation at 0.1 to 1 uM preincubated for 6 hrs followed by 1 to 9 Gy irradiation with and measured after 10 days by MTT based clonogenic survival assay; type: functional, cell-based; conditions: dose 0.1-1 µM, time 246.0 hrs
SMA-560 [14] = assay: Antitumor activity against mouse SMA-560 cells xenografted in VM/Dk mouse assessed as decrease in tumor cell proliferation at 100 mg/kg,po daily with 12 Gy irradition after 2days of treatment initiation by Ki67 staining based immunohistochemistry analysis; type: functional, organism-based

Cc1cc(C)c(-n2ccn3nc(-c4cccnc4)cc23)cc1NC(=O)c1cc(C#N)cc(S(F)(F)(F)(F)F)c1 [BAY-826]
Activity (SMA-560 [1]): Active | Activity (SMA-497 [2]): Active | Activity (SMA-540 [3]): inactive | Activity (SMA-560 [4]): Active | Activity (SMA-560 [5]): inactive | Activity (GL261): inactive | Activity (SMA-560 [6]): 0.66% | Activity (SMA-540 [7]): inactive | Activity (SMA-497 [8]): 4% | Activity (SMA-560 [9]): 3% | Activity (SMA-497 [10]): 18.3% | Activity (SMA-497 [11]): inactive | Activity (SMA-560 [12]): 8.81% | Activity (SMA-560 [13]): inactive | Activity (SMA-560 [14]): inactive
